From ChEMBL document CHEMBL6109062, “Novel tertiary diarylethylamines as functionally selective agonists of the kappa opioid receptor” (Bioorg Med Chem Lett, 2025)

Tests used:
in vitro [1] = conditions: human, liver microsomes
in vitro [2] = conditions: human, hepatocytes
in vitro [3] = conditions: rat, liver microsomes
in vivo [4] = conditions: rat, po
[5] = Clearance in rat; format: ADME; conditions: in vivo
in vitro [6] = conditions: rat, liver microsomes; remark: listed apart in the source
in vitro [7] = conditions: dog, MDCK-MDR1
in vivo [8] = conditions: rat, po, 10 mg/kg
in vivo [9] = conditions: rat, po, 10 mg/kg; remark: listed apart in the source

In the case of `Oc1cccc(CCN(CCc2ccccc2)CC2CCC2)c1`, the remaining at 0.25 h (in vitro [1]) is reported as < 5%.

In the case of `CC(Cc1ccc2nc[nH]c2c1)N(CCc1ccccc1)CC1CC1` (stereo unspecified), the hepatocyte CLint (in vitro [2]) is reported as 22.1 µL/min/1e6 cells, the remaining at 0.25 h (in vitro [1]) is reported as 70% and the remaining at 0.25 h (in vitro [3]) is reported as 10%.

With `O=c1[nH]c2ccc(CCN(CCc3ccccc3)CC3CCC3)cc2[nH]1` the remaining at 0.25 h (in vitro [1]) was 66% and the remaining at 0.25 h (in vitro [3]) was < 5%.

For `Oc1cccc(CCN(CC2CCC2)C2CN(Cc3ccccc3)C2)c1`, the bioavailability (in vivo [4]) was < 1%, the remaining at 0.25 h (in vitro [1]) was < 5% and the clearance [5] was 45 mL/min/kg.

`c1ccc(CCN(CCc2ccc3nc[nH]c3c2)CC2CC2)cc1` gave a hepatocyte CLint (in vitro [2]) of 16.7 µL/min/1e6 cells, a remaining at 0.5 h (in vitro [6]) of 3% and a Papp A→B (in vitro [7]) of 5.5 ×10⁻⁶ cm/s. The remaining at 0.25 h (in vitro [1]) was 77%, the half-life (in vivo [8]) was 1.2 h and the bioavailability (in vivo [9]) was 2.7%. For the same compound, the remaining at 0.25 h (in vitro [3]) was < 5%.
